Measured values taken from article PMC1976805, “Preclinical pharmacokinetics of benznidazole” (British Journal of Cancer, 1984).

Key:
[1] = Penetration into whole brain of BALB/c mice bearing EMT6 tumours; format: in vivo, mouse; conditions: for brain/whole plasma ratio (% ± s.e.) / brain/whole plasma ratio (s.e., n=5): 650 mg kg-1 i.p.; for tumour/brain ratio (% + s.e.): EMT6, 650 mg kg-1 i.p.; for brain/whole plasma ratio (s.e., n=5): experiment b; for Kp: male, BALB/c, mouse, whole brain / whole plasma
Description: (§1) Br. J. Cancer (1984), 50, 291-303 Preclinical pharmacokinetics of benznidazole P. Workman', R.A.S. White2, M.I. Walton', L.N. Owen2* & P.R. Twentyman' 1MRC Clinical Oncology and Radiotherapeutics Unit, MRC Centre, Hills Road, Cambridge CB2 2QH, and 2Department of Clinical Veterinary Medicine, University of Cambridge, Madingley Road, Cambridge CB3 OES, UK. […] We have investigated the detailed pharmacokinetics of benznidazole in mice, dogs and sheep to provide a data base for the estimation of doses required for chemosensitization in man. Pharmacokinetic behaviour was linear except at high doses in mice. Absorption was fairly rapid and bioavailability was complete following both i.p. administration in mice and oral administration in dogs. Elimination t4 values were longer than for MISO, being 90 min in mice, 4-5 h in sheep and 9-11 h in dogs. At doses giving linear kinetics, peak whole plasma concentrations per administered mgkg-1 were 0.75 jigml-1 for the i.p. route in mice and 1.8jugmlP' for the oral route in dogs. Though between 39 and 59% of plasma benznidazole was bound to protein, tissue penetration was generally good. Tissue/whole plasma ratios ranged from 59-99% for transplantable mouse tumours and from 14-70% for spontaneous dog neoplasms. Nervous tissue penetration was similar to that in tumours: brain/whole plasma ratios averaged between 61 and 76% in mice and 42% in dogs, while peripheral nerve/whole plasma ratios in dogs averaged 74%. Mean liver/whole plasma ratios were 42% and 71% in BALB/c and C3H/He mouse strains respectively. Only -5% of the administered dose was excreted unchanged in the urine, indicating the likelihood of extensive metabolism. […] Enhancement of CCNU response is likely to require circulating benznidazole concentrations of 10-30 pgml-1 and we predict that these will be obtained with oral doses of 6-20 mgkg- 1 in man. […] This enhancement, or chemosensitization, is usually greater than that seen in dose-limiting normal tissues, resulting in an improved therapeutic index. Because of the relatively high doses of MISO usually required for chemosensitization in mice (see above refs), and also because of its neurotoxicity in man (Dische et al., 1977), we have been interested in finding an improved chemosensitizer. […] The lipophilic ana- logue benznidazole (N-benzyl-(2-nitroimidazolyl) acetamide, Ro 07-1051; Radanil; Roche), the structure of which is shown in Figure 1, was selected for detailed study because of its ability to *Present address: Animal Health Trust, Small Animals Centre, Lanwades Park, Kennett, Newmarket, Suffolk CB8 7PN, UK. Correspondence: P. Workman. […] These findings have been confirmed independently by Siemann et al. (1983). Although benznidazole is used quite widely in South America to treat patients with the trypanosomal infection Chagas' disease or with mucotaneous Leishmaniasis (Barclay et al., 1978; Cerisola et al., 1978; Coura et al., 1978; Fava et al., 1978), apart from our preliminary studies (White et al., 1982) the only published data on its pharmaco- kinetics are for human plasma concentrations measured by polarography (Raaflub & Ziegler, 1979; Raaflub, 1980). Here we describe the pharmacokinetics of benznidazole in the mouse, sheep and dog, as determined by high-performance liquid chromatography (HPLC). […] The Macmillan Press Ltd., 1984 292 P. WORKMAN et al. particularly on plasma and tumour concentrations, have been used as a basis for the estimation of the benznidazole doses required in a Phase I trial of benznidazole plus CCNU, at present ongoing in our Unit. Materials and methods Animals and tumours Adult inbred male BALB/c mice were obtained from OLAC (Southern) Ltd. (Bicester, UK) and adult inbred C3H/He mice of both sexes from OLAC and our own breeding colony. Mice were housed in plastic cages on sawdust bedding made from soft white woods, and allowed laboratory chow and water ad lib. They were used at 20-35 g body wt.

KHT tumour = conditions: mice, cited from earlier work
plasma proteins [2] = experiment: Plasma protein binding in sheep (plasma ultrafiltrate); format: in vivo
Description: (§2) Br. J. Cancer (1984), 50, 291-303 Preclinical pharmacokinetics of benznidazole P. Workman', R.A.S. White2, M.I. Walton', L.N. Owen2* & P.R. Twentyman' 1MRC Clinical Oncology and Radiotherapeutics Unit, MRC Centre, Hills Road, Cambridge CB2 2QH, and 2Department of Clinical Veterinary Medicine, University of Cambridge, Madingley Road, Cambridge CB3 OES, UK. […] We have investigated the detailed pharmacokinetics of benznidazole in mice, dogs and sheep to provide a data base for the estimation of doses required for chemosensitization in man. Pharmacokinetic behaviour was linear except at high doses in mice. Absorption was fairly rapid and bioavailability was complete following both i.p. administration in mice and oral administration in dogs. […] Although benznidazole is used quite widely in South America to treat patients with the trypanosomal infection Chagas' disease or with mucotaneous Leishmaniasis (Barclay et al., 1978; Cerisola et al., 1978; Coura et al., 1978; Fava et al., 1978), apart from our preliminary studies (White et al., 1982) the only published data on its pharmaco- kinetics are for human plasma concentrations measured by polarography (Raaflub & Ziegler, 1979; Raaflub, 1980). Here we describe the pharmacokinetics of benznidazole in the mouse, sheep and dog, as determined by high-performance liquid chromatography (HPLC). […]

[3] = Penetration into EMT6 and KHT mouse tumours; format: in vivo; conditions: for steady-state concentration in tumour: multiple dose schedule
Description: as §1

plasma proteins [4] = experiment: Plasma protein binding, summary over species; format: in vivo; conditions: mouse, sheep, dog, range over species studied
Description: as §2

[5] = benznidazole 78 mg kg-1 i.p., ref Twentyman & Workman, 1983, Siemann et al.
[6] = EMT6 flank tumour, BALB/c, 45 min after 650 mg kg-1 i.p.

In the case of `O=C(Cn1ccnc1[N+](=O)[O-])NCc1ccccc1` [benznidazole, N-benzyl-(2-nitroimidazolyl) acetamide], the “brain/whole plasma ratio (% ± s.e.)” value ([1]; Exp 1 (a), n=16) is reported as 61+5%, the “tumour/brain ratio (% + s.e.)” value ([1]; Exp 1 (a), n=16) is reported as 120+33% and the “brain/whole plasma ratio (% ± s.e.)” value ([1]; Exp 2 (b), n=20) is reported as 68+3%. For the same compound, the “tumour/brain ratio (% + s.e.)” value ([1]; Exp 2 (b), n=20) was 116+5%, the “brain/whole plasma ratio (% ± s.e.)” value ([1]; Exp 3 (c), n=20) was 76+4% and the “tumour/brain ratio (% + s.e.)” value ([1]; Exp 3 (c), n=20) was 99+7%. The “brain/whole plasma ratio (s.e., n=5)” value ([1]; 45 min) was 56+3%, the “brain/whole plasma ratio (s.e., n=5)” value ([1]; 75 min) was 69+3% and the “brain/whole plasma ratio (s.e., n=5)” value ([1]; 105 min) was 71+5%. For the same compound, the “brain/whole plasma ratio (s.e., n=5)” value ([1]; 135 min) was 75 +5%, the Kp ([1]; mice, discussion comparison with MISO, read-out: brain/whole plasma ratio) was 0.68 and the Kp ([1]; read-out: brain/whole plasma ratios, range of averages) was 0.61 to 0.76. The “enhancement factor of CCNU response in normal tissues” value (KHT tumour; [5]) was 1.2-1.4, the “enhancement factor of tumour response to CCNU” value (KHT tumour; [5]) was 1.5-2 and the “i.p. dose giving clear enhancement of KHT tumour response to CCNU (at least as low as)” value (KHT tumour; ref Workman & Twentyman, 1982) was ≤ 13 mg/kg. For the same compound, the fraction unbound (plasma proteins [2]; male, Clun Forest/Border Leicester cross, plasma, iv, sheep 2, 4 mg kg-1 i.v., read-out: protein binding (s.e., n=6) (converted)) was 0.58, the “binding to plasma proteins” value (plasma proteins [2]; sheep, discussion summary) was 42% and the “concentration in tumour homogenate (Figure 2 chromatogram)” value [3, 6] was 13500 ng/mL. The “tumour concentration (Figure 2 chromatogram)” value [3, 6] was 54 µg/g, the “tumour/whole plasma ratio (s.e., n=5)” value ([3]; EMT6 flank, experiment b, 650 mg kg-1 i.p., 45 min) was 58+8% and the “tumour/whole plasma ratio (s.e., n=5)” value ([3]; EMT6 flank, experiment b, 650 mg kg-1 i.p., 75 min) was 70 + 5%. The “tumour/whole plasma ratio (s.e., n=5)” value ([3]; EMT6 flank, experiment b, 650 mg kg-1 i.p., 105 min) was 97 + 4%, the “tumour/whole plasma ratio (s.e., n=5)” value ([3]; EMT6 flank, experiment b, 650 mg kg-1 i.p., 135 min) was 88 + 9% and the “tumour/whole plasma ratio (% ± s.e.)” value ([3]; EMT6 i.d. flank, BALB/c, Exp 2 (b): 650 mg kg-1 i.p., 45-135 min, n=20) was 79 + 5%. The “peak tumour level (s.e., n=4)” value ([3]; EMT6 i.d. flank, first experiment, 650 mg kg-1 i.p. in arachis oil) was 55+11 µg g-1, the “tumour/whole plasma ratio (% ± s.e.)” value ([3]; EMT6 i.m. leg, BALB/c, Exp 1 (c): 650 mg kg-1 i.p., 45-135 min, n=20) was 75 + 5% and the “tumour/whole plasma ratio (% ± s.e.)” value ([3]; EMT6 i.m. leg, BALB/c, Exp 2 (d): 650 mg kg-1 i.p., 45-135 min, n=20) was 74+6%. The “peak tumour level (s.e., n=5)” value ([3]; EMT6 i.m. leg, first experiment, 650 mg kg-1 i.p.) was 130+7 µg g-1, the “peak tumour level (s.e., n=5)” value ([3]; EMT6 i.m. leg, second experiment, 650 mg kg-1 i.p.) was 84+14 µg g-1 and the “tumour/whole plasma ratio (% ± s.e.)” value ([3]; KHT i.m. leg, C3H/He, Exp 1 (e): 60 mg kg-1 i.p. priming + 15 hourly doses of 15 mg kg-1, 1-16 h, n=25) was 99+3%. For the same compound, the “tumour/whole plasma ratio (% ± s.e.)” value ([3]; KHT i.m. leg, C3H/He, Exp 2 (f): dosing as e omitting the dose at 1 h, 2-16 h, n=13) was 90+ 3%, the “tumour/whole plasma ratio (s.e., n=5)” value ([3]; KHT tumour, 1 h after single i.p. dose of 78 mg kg-1) was 88+5% and the “tumour/whole plasma ratio (s.e., n=5)” value ([3]; KHT tumour, 1 h after single i.p. dose of 260 mg kg-1) was 88+2%. The “steady-state concentration in tumour” value ([3]; KHT tumour, first experiment) was 26 µg/g, the “steady-state concentration in tumour” value ([3]; KHT tumour, second experiment) was 32 µg/g and the “range of mean plasma concentrations” value ([3]; Table II experiment a) was 49 to 99 µg/mL. The “range of mean plasma concentrations” value ([3]; Table II experiment b) was 77 to 121 µg/mL, the “range of mean plasma concentrations” value ([3]; Table II experiment c) was 100 to 130 µg/mL and the “range of mean plasma concentrations” value ([3]; Table II experiment d) was 74 to 133 µg/mL. For the same compound, the “range of mean plasma concentrations” value ([3]; Table II experiment e (multiple dose)) was 25 to 47 µg/mL, the “range of mean plasma concentrations” value ([3]; Table II experiment f (multiple dose)) was 12 to 29 µg/mL and the Kp ([3]; male, BALB/c, mouse, EMT6 flank tumour / whole plasma, EMT6 flank tumours, read-out: overall tissue/whole plasma ratio) was 0.69. The Kp ([3]; male, mouse, tumour (EMT6, intradermal, intraperitoneal), EMT6 i.d. flank, BALB/c, Exp 1 (a): 650 mg kg-1 i.p. single dose (arachis oil), 45-135 min, n=16, read-out: tumour/whole plasma ratio (% ± s.e.)) was 0.59, the “peak tumour concentration that would be produced” value ([3]; mice, 13 mg kg-1 i.p.) was ~9 µg/g and the tumour concentration ([3]; mice, 78 mg kg-1 i.p., discussion summary) was 26 µg/g. The Kp ([3]; tumour (KHT and EMT6), transplantable mouse tumours (KHT and EMT6), read-out: tissue/whole plasma ratios, range) was 0.59 to 0.99, the Kp ([3]; tumour / whole plasma, transplantable mouse tumours, read-out: steady-state tumour/whole plasma ratio (about)) was ~0.9 and the fraction unbound (plasma proteins [4]) was 0.41 to 0.61.
